Assay results taken from US20170298051A1, “ACTIVATOR OF ADIPONECTIN RECEPTOR” (THE UNIVERSITY OF TOKYO, priority 2013, published 2017).

What was measured:
[1] = system: mice fed a HF diet; experiment: Effects on lipid metabolism: plasma triglycerides and free fatty acid in mice fed a HF diet; assay type: in vivo
Method: (§1) Mice were 6-10 week of age at the time of the experiment. They were housed in cages and maintained on a 12 hr light-dark cycle.
(§2) Plasma glucose levels were determined by using a glucose B-test (Wako Pure Chemical Industries). Plasma insulin was measured with an insulin immunoassay (Shibayagi). Plasma NEFAs (Wako Pure Chemical Industries) were assayed by enzymatic methods.

[2] = system: AdipoR1-AMPK pathway and AdipoR2-PPARα pathway in the liver; experiment: Liver: gene expression, TG content, TBARS in mice fed a HF diet; assay type: in vivo
Method: (§3) Real-time PCR was carried out according to the method described previously^a,b,c. Total RNA was prepared from cells or tissues with Trizol (Invitrogen) according to the manufacturer's instructions. We used a real-time PCR method to quantify the mRNAs^19, with slight modifications.
(§4) Skeletal muscle homogenates were extracted, and tissue triglyceride content was determined as described previously^a-c, with some modifications. To investigate whether oxidative stress was increased, we measured lipid peroxidation, a marker of oxidative injury, as represented by plasma thiobarbituric acid reactive substance (TBARS) as described previously^4. Briefly, tissue samples were homogenized in a buffer solution containing 50 mM Tris-HCl (pH 7.4) and 1.15% KCl, and then centrifuged. The supernatant was used for the assay. The levels of lipid peroxidation in tissue homogenate and plasma were measured in terms of the amount of TBARS using the LPO test (Wako Pure Chemical Industries).

[3] = target: T1, Human AdipoR2 (Homo sapiens, UniProt Q86V24); experiment: Surface plasmon resonance, affinity for AdipoR2; assay type: binding; details: SPR
T1 construct: made in house
T1 sequence (Q86V24 1-386): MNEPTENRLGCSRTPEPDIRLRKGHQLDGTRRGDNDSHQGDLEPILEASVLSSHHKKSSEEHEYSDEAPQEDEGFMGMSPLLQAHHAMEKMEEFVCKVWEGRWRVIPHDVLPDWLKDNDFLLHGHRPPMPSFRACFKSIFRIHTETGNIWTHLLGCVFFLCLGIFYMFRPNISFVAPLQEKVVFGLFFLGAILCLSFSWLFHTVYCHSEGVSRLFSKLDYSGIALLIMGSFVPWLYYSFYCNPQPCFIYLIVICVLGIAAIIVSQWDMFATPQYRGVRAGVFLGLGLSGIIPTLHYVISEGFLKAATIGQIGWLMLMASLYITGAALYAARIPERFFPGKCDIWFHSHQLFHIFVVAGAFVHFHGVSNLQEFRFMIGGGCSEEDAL
Method: Surface plasmon resonance measurements were performed by a BIAcore X100 system (GE Healthcare) and sensor chip SA (GE Healthcare). Human AdipoR1 and AdipoR2 were expressed with the baculovirus system, and purified to homogeneity. The AdipoR1 and AdipoR2 samples were then reconstituted into egg-phosphatidylcholine liposomes containing biotinyl phosphatidylethanolamine (Avanti), as previously reported^a. Mouse full-length adiponectin was generated as previously described^b,c,d,e. AdipoR1 and AdipoR2 were immobilized onto a sensor chip SA to levels of 2,500-3,000 response units (RU) using standard immobilization protocols (GE Healthcare).
Experiments were performed at 25° C. using AdipoRon (0.49-31.25 μM) and adiponectin (1.5 ng-3.75 μg) and using electrophoresis buffer (20 mM Hepes (pH 7.4), 200 mM NaCl, 10% glycerol, […] surfactant P20). Biacore X100 Evaluation Software was used to determine the equilibrium dissociation constant (KD) of the compound or proteins.

[4] = system: AdipoR1; experiment: Measurement of AMPK phosphorylation ability (Assay 2), C2C12 cells with unrelated or AdipoR1 siRNA; assay type: cell-based, Mouse
In short: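 Differentiated C2C12 myotubes (DMEM, 2.5% horse serum) transfected with 5 μM siRNA stock via Lipofectamine RNAiMAX, serum-starved next day, then exposed to test compound for 10 min. Plates snap-frozen in liquid nitrogen; pAMPK and total AMPK quantified as in Assay 1.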

[5] = system: AdipoR1-AMPK-PGC-1α pathways in skeletal muscle; experiment: Skeletal muscle: gene expression, mitochondrial DNA content, TG content, TBARS in mice fed a HF diet; assay type: in vivo
Method: Mitochondrial content assays were carried out as described previously^a,b, with slight modifications. For quantification of mitochondrial content, we used mtDNAas previously described^c.
as §3, §4

[6] = system: HF diet-induced obese mice; experiment: Oral glucose tolerance test and insulin tolerance in HF diet-induced obese mice; assay type: in vivo; details: WT mice on HF diet, oral 50 mg/kg, 10 days
Method: The original Adipor1^+/−/Adipor2^+/− mice (C57BL/6 and 129/Sv mixed background)^a were backcrossed with C57B1/6 mice more than seven times. All experiments in this study were conducted on male littermates.
as §1, §2
The oral glucose tolerance test (OGTT) and insulin tolerance test (ITT) were conducted as previously described^a,b with slight modifications. The areas of the glucose and insulin curves were calculated by multiplying the cumulative mean height of the glucose values (1 mg/ml=1 cm) and insulin values (1 ng/ml=1 cm), respectively, by time (60 min=1 cm)^c,a. The insulin resistance index was calculated from the product of the areas of glucose and insulin×10^−2 in the glucose tolerance test. The results are expressed as the percentage of the value respect to control littermates.

[7] = Adipor1/r2 double-knockout mice
[8] = WT mice fed a HF diet, oral 50 mg/kg, 10 days
[9] = Adipor1/r2 double-knockout mice fed with a HF diet

For `O=C(COc1ccc(C(=O)c2ccccc2)cc1)NC1CCN(Cc2ccccc2)CC1` [Compound 73, 2-(4-benzoyl-phenoxy)-N-(1-benzylpiperidin-4-yl)acetamide], the “reduction of plasma TG and FFA” value [1, 7] was “not observed”, the “plasma concentration of free fatty acid (FFA)” value [1, 8] was “reduced” and the “plasma concentration of triglycerides (TG)” value [1, 8] was “reduced”. The “effect on TG content and TBARS in the liver” value [2, 9] was “such effect was not observed”, the “expression level of genes encoding pro-inflammatory cytokines in the liver” value [2, 9] was “such effect was not observed” and the “expressions of Ppargc1a and G6pc in the liver” value [2, 9] was “such effect was not observed”. The “expression levels of Pparα and its target genes (Acox1, Ucp2, Cat) in the liver” value ([2]; WT mice fed a HF diet) was “increased the expression levels”, the “TG content in the liver” value ([2]; WT mice fed with a HF diet) was “significantly reduced TG content” and the “expression level of genes encoding pro-inflammatory cytokines (Tnf, Ccl2) in the liver” value ([2]; WT mice fed with a HF diet) was “reduced the expression level”. For the same compound, the “expressions of Ppargc1a and G6pc in the liver” value ([2]; WT mice fed with a HF diet) was “significantly decreased the expressions”, the “oxidative stress, as measured by TBARS, in the liver” value ([2]; WT mice fed with a HF diet) was “significantly reduced” and the Rmax [3] was 8.6 RU. The Kd ([3]; 25° C., read-out: equilibrium dissociation constant (KD)) was 3.1 µM, the “pAMPK/AMPK (ratio) siRNA, AdipoR1 siRNA” value ([4]; AdipoR1 siRNA) was 2.68 ratio and the “pAMPK/AMPK (ratio) siRNA, unrelated siRNA” value ([4]; unrelated siRNA) was 4.75 ratio. The “effects on mitochondrial genes and mitochondrial DNA content in skeletal muscle” value [5, 7] was “totally obliterated”, the “levels of type I fiber marker Troponin I (slow) (Tnni1)” value [5, 7] was “but not in Adipor1/r2 double-knockout mice” and the “effect on Sod2 and TBARS” value [5, 9] was “such effect was not observed”. The “levels of type I fiber marker Troponin I (slow) (Tnni1)” value ([5]; WT mice) was “increased the levels”, the “mitochondrial DNA content in skeletal muscle” value ([5]; WT mice) was “increased mitochondrial DNA content” and the “TG content in the skeletal muscle” value ([5]; WT mice fed with a HF diet) was “decreased TG content”. The “expression levels of oxidative stress detoxifying genes such as Sod2” value ([5]; skeletal muscle, WT mice) was “significantly increased expression levels”, the “genes involved in fatty acid oxidation such as Acadm” value ([5]; skeletal muscle, WT mice) was “significantly increased” and the “oxidative stress markers such as TBARS” value ([5]; skeletal muscle, WT mice) was “decreased oxidative stress markers”. For the same compound, the “fasting plasma glucose and insulin levels, glucose and insulin responses during OGTT” value [6] was “significant decrease” and the insulin sensitivity [6] was “improved insulin sensitivity”.
